Measured values: PMC9133015 (Nature Communications, 2022)
Several values for one entry are separate records, joined by “and”; a condition that tells them apart may be missing. Equal values may be shown once. Read-outs that look alike come from different tables or passages of the source. Each block holds one molecule with its values, some of them ahead of it.

Key:
DYRK2 protein = molecular target: T1, DYRK2 protein (Homo sapiens, UniProt Q92630); assay: Microscale thermophoresis binding assay; details: for Fnorm: triplicates
T1 construct: 6xHis (N, cleaved yes); TEV protease cleavage site (N, cleaved yes); made in house; host or cells: E. coli BL21 (DE3)
T1 sequence (Q92630 72-479 isoform Q92630-2): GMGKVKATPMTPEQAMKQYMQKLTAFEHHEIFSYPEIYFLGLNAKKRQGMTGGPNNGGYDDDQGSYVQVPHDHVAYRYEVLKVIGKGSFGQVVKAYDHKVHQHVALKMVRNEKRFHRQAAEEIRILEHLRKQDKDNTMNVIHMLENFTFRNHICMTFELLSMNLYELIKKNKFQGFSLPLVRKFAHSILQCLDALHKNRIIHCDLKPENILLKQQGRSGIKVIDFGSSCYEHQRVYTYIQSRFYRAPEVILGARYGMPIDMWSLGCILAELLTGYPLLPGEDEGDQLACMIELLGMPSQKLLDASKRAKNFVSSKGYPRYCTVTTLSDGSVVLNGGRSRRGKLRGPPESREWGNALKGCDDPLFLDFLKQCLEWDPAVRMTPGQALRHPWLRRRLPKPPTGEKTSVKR

DYRK2 = molecular target: T2, DYRK2 (Homo sapiens, UniProt Q92630); assay: DYRKs kinase activity assay (33P-ATP, DYRKtide substrate): DYRK2; assay type: biochemical
T2 construct: purchased Reaction Biology Corporation (assay service)
T2 sequence (Q92630 1-601): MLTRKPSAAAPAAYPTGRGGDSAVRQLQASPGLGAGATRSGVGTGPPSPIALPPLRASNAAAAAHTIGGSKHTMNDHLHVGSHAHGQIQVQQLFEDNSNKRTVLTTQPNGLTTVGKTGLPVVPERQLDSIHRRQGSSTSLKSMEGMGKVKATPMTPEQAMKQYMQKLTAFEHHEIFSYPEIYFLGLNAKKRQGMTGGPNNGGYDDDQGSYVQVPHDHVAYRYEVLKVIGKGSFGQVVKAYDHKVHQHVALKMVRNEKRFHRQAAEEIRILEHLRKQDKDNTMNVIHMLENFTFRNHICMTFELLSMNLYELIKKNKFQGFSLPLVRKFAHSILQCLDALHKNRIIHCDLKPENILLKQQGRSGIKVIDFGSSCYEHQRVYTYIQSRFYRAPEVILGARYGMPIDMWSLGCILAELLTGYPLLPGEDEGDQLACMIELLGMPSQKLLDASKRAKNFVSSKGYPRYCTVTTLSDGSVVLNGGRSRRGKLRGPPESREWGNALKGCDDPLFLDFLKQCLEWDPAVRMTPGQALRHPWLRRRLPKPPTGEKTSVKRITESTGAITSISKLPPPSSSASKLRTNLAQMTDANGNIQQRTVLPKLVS

[1] = DYRK2 kinase, Conc. 0.000508053 µM, duplicate values
[2] = DYRK2 kinase, Conc. 0.00152416 µM, duplicate values
[3] = DYRK2 kinase, Conc. 0.00457247 µM, duplicate values
[4] = DYRK2 kinase, Conc. 0.0137174 µM, duplicate values
[5] = DYRK2 kinase, Conc. 0.0137174 µM, duplicate values, read-out: % Inhibition
[6] = DYRK2 kinase, Conc. 0.0411523 µM, duplicate values
[7] = DYRK2 kinase, Conc. 0.0411523 µM, duplicate values, read-out: % Inhibition
[8] = DYRK2 kinase, Conc. 0.123457 µM, duplicate values
[9] = DYRK2 kinase, Conc. 0.123457 µM, duplicate values, read-out: % Inhibition
[10] = DYRK2 kinase, Conc. 0.37037 µM, duplicate values
[11] = DYRK2 kinase, Conc. 0.37037 µM, duplicate values, read-out: % Inhibition
[12] = DYRK2 kinase, Conc. 1.11111 µM, duplicate values
[13] = DYRK2 kinase, Conc. 1.11111 µM, duplicate values, read-out: % Inhibition
[14] = DYRK2 kinase, Conc. 3.33333 µM, duplicate values
[15] = DYRK2 kinase, Conc. 3.33333 µM, duplicate values, read-out: % Inhibition
[16] = DYRK2 kinase, Conc. 10 µM, duplicate values
[17] = DYRK2 kinase, Conc. 10 µM, duplicate values, read-out: % Inhibition

Kd (DYRK2 protein): 4210 nM
Fnorm (DYRK2 protein; Ligand Concentration 1.52588e-9 M): 954.38 ‰ and 953.199 ‰ and 953.894 ‰
Fnorm (DYRK2 protein; Ligand Concentration 3.05176e-9 M): 952.707 ‰ and 951.359 ‰ and 952.777 ‰
Fnorm (DYRK2 protein; Ligand Concentration 6.10352e-9 M): 952.691 ‰ and 953.017 ‰ and 952.481 ‰
Fnorm (DYRK2 protein; Ligand Concentration 1.2207e-8 M): 952.212 ‰ and 953.635 ‰ and 952.43 ‰
Fnorm (DYRK2 protein; Ligand Concentration 2.44141e-8 M): 953.58 ‰ and 951.571 ‰ and 954.168 ‰
Fnorm (DYRK2 protein; Ligand Concentration 4.88281e-8 M): 951.243 ‰ and 951.794 ‰ and 952.294 ‰
Fnorm (DYRK2 protein; Ligand Concentration 9.76563e-8 M): 951.852 ‰ and 953.231 ‰ and 951.931 ‰
Fnorm (DYRK2 protein; Ligand Concentration 1.95313e-7 M): 949.537 ‰ and 959.016 ‰ and 950.589 ‰
Fnorm (DYRK2 protein; Ligand Concentration 3.90625e-7 M): 952.367 ‰ and 950.104 ‰ and 950.78 ‰
Fnorm (DYRK2 protein; Ligand Concentration 7.8125e-7 M): 949.243 ‰ and 949.342 ‰ and 952.357 ‰
Fnorm (DYRK2 protein; Ligand Concentration 1.5625e-6 M): 951.973 ‰ and 948.051 ‰ and 949.742 ‰
Fnorm (DYRK2 protein; Ligand Concentration 3.125e-6 M): 946.14 ‰ and 947.629 ‰ and 949.334 ‰
Fnorm (DYRK2 protein; Ligand Concentration 6.25e-6 M): 948.962 ‰ and 949.021 ‰ and 944.76 ‰
Fnorm (DYRK2 protein; Ligand Concentration 1.25e-5 M): 945.246 ‰ and 944.859 ‰ and 943.424 ‰
Fnorm (DYRK2 protein; Ligand Concentration 2.5e-5 M): 944.179 ‰ and 942.478 ‰ and 945.127 ‰
Fnorm (DYRK2 protein; Ligand Concentration 5e-5 M): 942.507 ‰ and 940.515 ‰ and 942.733 ‰
inhibition at 0.00152416 µM (DYRK2; 0.00152416 µM, duplicates, read-out: % Inhibition DYRK2): 3.73%
inhibition at 0.0137174 µM (DYRK2; 0.0137174 µM, duplicates, read-out: % Inhibition DYRK2): 8.64%
inhibition at 0.0411523 µM (DYRK2; 0.0411523 µM, duplicates, read-out: % Inhibition DYRK2): 21.1%
inhibition at 0.123457 µM (DYRK2; 0.123457 µM, duplicates, read-out: % Inhibition DYRK2): 34.4%
inhibition at 0.37037 µM (DYRK2; 0.37037 µM, duplicates, read-out: % Inhibition DYRK2): 57.9%
inhibition at 1.11111 µM (DYRK2; 1.11111 µM, duplicates, read-out: % Inhibition DYRK2): 76.8%
inhibition at 3.33333 µM (DYRK2; 3.33333 µM, duplicates, read-out: % Inhibition DYRK2): 87.6%
inhibition at 10 µM (DYRK2; 10 µM, duplicates, read-out: % Inhibition DYRK2): 82.5%
% Inhibition (DYRK2; [1]): 5.75% and 2.04%
% Inhibition (DYRK2; [2]): 4.49%
inhibition at 0.00152416 µM (DYRK2; DYRK2 kinase, Conc. 0.00152416 µM, duplicate values, read-out: % Inhibition): 3.73%
% Inhibition (DYRK2; [3]): 3.40% and 7.56%
% Inhibition (DYRK2; [4]): 7.85%
inhibition at 0.0137174 µM (DYRK2; [5]): 8.64%
% Inhibition (DYRK2; [6]): 22.26%
inhibition at 0.0411523 µM (DYRK2; [7]): 21.1%
% Inhibition (DYRK2; [8]): 33.57%
inhibition at 0.123457 µM (DYRK2; [9]): 34.4%
% Inhibition (DYRK2; [10]): 58.41%
inhibition at 0.37037 µM (DYRK2; [11]): 57.9%
% Inhibition (DYRK2; [12]): 75.65%
inhibition at 1.11111 µM (DYRK2; [13]): 76.8%
% Inhibition (DYRK2; [14]): 88.99%
inhibition at 3.33333 µM (DYRK2; [15]): 87.6%
% Inhibition (DYRK2; [16]): 86.13%
inhibition at 10 µM (DYRK2; [17]): 82.5%
IC50 (DYRK2; Supplementary Table 1, read-out: IC50 (μM), DYRK2 kinase): 0.263 µM
IC50 (DYRK2; read-out: DYRK2 IC50): 0.263 µM
Compound: CC(C)N1CCN(Cc2ccc(Nc3ncc(F)c(-c4ccc5ncsc5c4)n3)nc2)CC1 [Compound 12]

% Inhibition (DYRK2; [1]): 2.20% and 10.58%
% Inhibition (DYRK2; [2]): 4.62% and 14.25%
% Inhibition (DYRK2; [3]): 24.52%
inhibition at 0.00457247 µM (DYRK2; [3]): 19.2%
% Inhibition (DYRK2; [4]): 39.86%
inhibition at 0.0137174 µM (DYRK2; [5]): 35.4%
% Inhibition (DYRK2; [6]): 60.50%
inhibition at 0.0411523 µM (DYRK2; [7]): 61%
% Inhibition (DYRK2; [8]): 75.45%
inhibition at 0.123457 µM (DYRK2; [9]): 73%
% Inhibition (DYRK2; [10]): 85.34%
inhibition at 0.37037 µM (DYRK2; [11]): 86.1%
% Inhibition (DYRK2; [12]): 90.57%
inhibition at 1.11111 µM (DYRK2; [13]): 92%
% Inhibition (DYRK2; [14]): 94.68%
inhibition at 3.33333 µM (DYRK2; [15]): 95%
% Inhibition (DYRK2; [16]): 98.21%
inhibition at 10 µM (DYRK2; [17]): 97%
IC50 (DYRK2; read-out: DYRK2 IC50): 0.027 µM
Compound: Cc1nc2ccc(-c3nc(Nc4ccc(C(=O)N5CCNCC5)cn4)ncc3F)cc2s1.Cl [Compound 24]
